The experiment deals with T1, human NaV1.8 (Homo sapiens, UniProt Q9Y5Y9).
T1 construct: expressed in transfected cells
T1 sequence (Q9Y5Y9 whole entry): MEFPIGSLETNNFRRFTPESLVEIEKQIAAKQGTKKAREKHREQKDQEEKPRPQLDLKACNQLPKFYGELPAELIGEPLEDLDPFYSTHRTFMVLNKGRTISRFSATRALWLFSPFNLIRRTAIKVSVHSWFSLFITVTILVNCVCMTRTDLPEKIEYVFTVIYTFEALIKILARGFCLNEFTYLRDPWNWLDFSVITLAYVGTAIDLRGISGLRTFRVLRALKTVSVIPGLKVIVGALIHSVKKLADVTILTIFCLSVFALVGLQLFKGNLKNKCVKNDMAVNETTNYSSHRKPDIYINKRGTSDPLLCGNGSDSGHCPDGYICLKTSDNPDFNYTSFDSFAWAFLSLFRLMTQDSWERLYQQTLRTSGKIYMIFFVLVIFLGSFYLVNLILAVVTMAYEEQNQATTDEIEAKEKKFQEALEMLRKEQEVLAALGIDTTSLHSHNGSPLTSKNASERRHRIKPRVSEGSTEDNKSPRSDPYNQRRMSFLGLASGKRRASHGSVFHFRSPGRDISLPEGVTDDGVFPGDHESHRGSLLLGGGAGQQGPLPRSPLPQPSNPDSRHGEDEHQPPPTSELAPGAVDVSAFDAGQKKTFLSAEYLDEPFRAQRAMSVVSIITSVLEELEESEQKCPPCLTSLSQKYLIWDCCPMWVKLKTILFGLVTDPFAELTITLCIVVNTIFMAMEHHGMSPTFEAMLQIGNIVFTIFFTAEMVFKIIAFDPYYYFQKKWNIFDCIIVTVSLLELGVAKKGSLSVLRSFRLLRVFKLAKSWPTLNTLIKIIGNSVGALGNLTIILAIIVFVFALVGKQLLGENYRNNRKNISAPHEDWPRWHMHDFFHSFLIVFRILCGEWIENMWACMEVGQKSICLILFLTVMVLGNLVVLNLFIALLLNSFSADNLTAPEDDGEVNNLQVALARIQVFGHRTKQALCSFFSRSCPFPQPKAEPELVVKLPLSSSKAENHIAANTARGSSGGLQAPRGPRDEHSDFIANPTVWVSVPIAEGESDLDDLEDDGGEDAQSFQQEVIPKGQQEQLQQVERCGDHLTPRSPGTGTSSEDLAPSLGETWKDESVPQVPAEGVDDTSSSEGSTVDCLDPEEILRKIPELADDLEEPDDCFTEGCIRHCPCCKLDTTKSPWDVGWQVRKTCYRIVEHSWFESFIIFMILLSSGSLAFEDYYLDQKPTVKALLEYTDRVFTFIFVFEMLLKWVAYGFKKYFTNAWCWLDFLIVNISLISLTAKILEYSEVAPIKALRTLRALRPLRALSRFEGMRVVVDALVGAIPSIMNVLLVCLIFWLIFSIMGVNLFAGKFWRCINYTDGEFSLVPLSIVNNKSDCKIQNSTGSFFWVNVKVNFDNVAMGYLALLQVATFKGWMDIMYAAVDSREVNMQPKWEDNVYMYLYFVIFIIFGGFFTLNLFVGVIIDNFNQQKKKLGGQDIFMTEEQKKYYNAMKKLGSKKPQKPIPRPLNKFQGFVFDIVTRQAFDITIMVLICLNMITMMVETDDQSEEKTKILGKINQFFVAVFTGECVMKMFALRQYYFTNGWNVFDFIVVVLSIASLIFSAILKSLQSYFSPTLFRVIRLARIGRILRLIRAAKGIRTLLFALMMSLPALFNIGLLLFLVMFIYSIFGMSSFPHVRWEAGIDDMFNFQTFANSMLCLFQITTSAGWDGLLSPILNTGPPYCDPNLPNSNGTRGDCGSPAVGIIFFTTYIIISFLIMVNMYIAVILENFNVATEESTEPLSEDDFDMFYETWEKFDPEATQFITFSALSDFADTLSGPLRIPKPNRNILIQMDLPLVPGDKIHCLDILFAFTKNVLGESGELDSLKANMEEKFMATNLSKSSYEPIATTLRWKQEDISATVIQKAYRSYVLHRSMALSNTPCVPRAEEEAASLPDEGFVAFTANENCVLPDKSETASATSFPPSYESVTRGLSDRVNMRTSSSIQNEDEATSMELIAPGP
Kind of experiment: Nav1.8 Qube® Assay (automated 384-well patch-clamp, inhibition of sodium current). It is filed as cell-based. The settings on record: human NaV1.8 channels stably expressed in HEK 293 cells, room temperature. As to the method:
Compounds were tested on human NaV1.8 and NaV1.5 channels stably expressed in human embryo kidney (HEK) 293 cells. Sodium current measurements on Qube® were conducted as follows: automated 384-well patch-clamp assays on the Qube® platform (Sophion Biosciences) were used to measure the inhibition of sodium flow through human NaV1.8 and NaV1.5 channels. Whole-cell voltage-clamp recordings were performed in QChips® (Sophion Biosciences) at room temperature. NaV1.8 current measurements on Qube® were obtained as follows: NaV1.8 currents were elicited with a 10 second 1 Hertz (Hz) pulse train from a holding potential of −90 millivolts (mV), delivered to the cells once per minute in the control condition (DMSO only) and after compound addition. The 1 hertz pulse train stimulation consisted of ten test pulses to 10 millivolt (mV) for 20 milliseconds (ms), each of which was followed by a 980 millisecond repolarization to −67 millivolts. At the end of the 10 second pulse train stimulation, a 5 second hyperpolarization step to −100 millivolt (mV) was used to recover NaV1.8 from fast inactivation. The peak currents elicited by the 1st and 10th test pulses were used to determine IC50 values for resting inhibition and inactivated state inhibition. NaV1.5 current measurements on Qube® were obtained as follows: NaV1.5 currents were elicited with a 20 second 3 Hertz pulse train in the control condition (DMSO only) and after compound addition. The pulse train consisted of sixty 20 millisecond test pulses to 0 millivolt from a holding potential of −80 millivolt (mV). The average peak currents elicited by the last 3 test pulses were used to determine IC50 values for NaV1.5 inhibition.
The following buffers were used for the Qube® recordings: External buffer for NaV1.8 Qube® recording: 150 NaCl, 2 CaCl2, 5 KCl, 1 Mg Cl2, 10 HEPES, 12 Dextrose; External buffer for Qube® NaV1.5 recording: 120 N-Methyl-D-Glucamine, 40 NaCl, 1 KCl, 2.7 CaCl2, 5 HEPES, 0.5 MgCl2; and Internal buffer for Qube® recording: 120 CsF, 30 CsCl, 10 EGTA, 5 HEPES, 5 NaF, 2 MgCl2.
For all Qube® experiments offline analysis was used to determine percent inhibition as a function of drug concentration. IC50 values were determined by fitting to the Hill equation.
In turn, `O=C1CN(C(=O)N[C@H](c2ccc(F)c(Cl)c2)C2CCC(C(F)(F)F)CC2)CCN1` (single isomer, unassigned) [Example 1A] showed an IC50 of 0.0035 µM.
Under `O=C1CN(C(=O)N[C@H](c2ccc(F)c(Cl)c2)C2CCC(C(F)(F)F)CC2)CCN1` (single isomer, unassigned) [Example 1B] stands 0.183 µM; under `O=C1CN(C(=O)NC(c2ccc(F)c(Cl)c2)C2CC3CCC(C2)C3(F)F)CCN1` (single isomer, unassigned) [Example 2A, N-((R or S)-(3-chloro-4-fluoro-phenyl)(8,8-difluoro-bicyclo[3.2.1]octan-3-yl)methyl)-3-oxopiperazine-1-carboxamide], 0.0655 µM.
Regarding `O=C1CN(C(=O)NC(c2ccc(F)c(Cl)c2)C2CC3CCC(C2)C3(F)F)CCN1` (single isomer, unassigned) [Example 2B, N-((S or R)-(3-chloro-4-fluoro-phenyl)(8,8-difluroo-bicyclo[3.2.1]octan-3-yl)methyl)-3-oxopiperazine-1-carboxamide], the IC50 stood at 0.41 µM.
The same measure for `C[C@@H]1C(=O)NCCN1C(=O)NC(c1ccc(F)c(Cl)c1)C1CC2CCC(C1)C2(F)F` (single isomer, unassigned) [Example 3A, (2R)-N-((R or S)-(3-chloro-4-fluoro-phenyl)(8,8-difluoro-bicyclo[3.2.1]octan-3-yl)methyl)-2-methyl-3-oxo-piperazine-1-carboxamide]: 0.0148 µM.
The same measure for `C[C@@H]1C(=O)NCCN1C(=O)NC(c1ccc(F)c(Cl)c1)C1CC2CCC(C1)C2(F)F` (single isomer, unassigned) [Example 3B, (2R)-N-((S or R)-(3-chloro-4-fluoro-phenyl)(8,8-difluoro-bicyclo[3.2.1]octan-3-yl)methyl)-2-methyl-3-oxo-piperazine-1-carboxamide]: 0.148 µM; for `O=C1CN(C(=O)N[C@H](c2ccc(Cl)cc2)C2CCC(C(F)(F)F)CC2)CCN1` (single isomer, unassigned) [Example 4A, N-((R or S)-(4-chlorophenyl)(trans-4-(trifluoromethyl)-cyclohexyl)methyl)-3-oxopiperazine-1-carboxamide]: 0.0893 µM; for `O=C1CN(C(=O)N[C@H](c2ccc(Cl)cc2)C2CCC(C(F)(F)F)CC2)CCN1` (single isomer, unassigned) [Example 4B, N-((S or R)-(4-chlorophenyl)(trans-4-(trifluoromethyl)-cyclohexyl)methyl)-3-oxopiperazine-1-carboxamide]: 0.288 µM.
`C[C@@H]1C(=O)NCCN1C(=O)N[C@H](c1ccc(F)c(Cl)c1)C1CCC(C(F)(F)F)CC1` (single isomer, unassigned) [Example 5A, (2R)-N-((R or S)-(3-chloro-4-fluoro-phenyl)(trans-4-(trifluoromethyl)cyclo-hexyl)methyl)-2-methyl-3-oxo-piperazine-1-carboxamide] displayed an IC50 of 0.0409 µM. Against the preceding compound, the IC50 is about 7-fold lower.
`C[C@@H]1C(=O)NCCN1C(=O)N[C@H](c1ccc(F)c(Cl)c1)C1CCC(C(F)(F)F)CC1` (single isomer, unassigned) [Example 5B, (2R)-N-((S or R)-(3-chloro-4-fluoro-phenyl)(trans-4-(tri-fluoromethyl)cyclo-hexyl)methyl)-2-methyl-3-oxo-piperazine-1-carboxamide] gave a half-maximal inhibitory concentration (IC50) of 0.0042 µM.
As for `C[C@@H]1C(=O)NCCN1C(=O)NC(c1cc(F)c(F)c(F)c1)[C@H]1CC[C@H](C(F)(F)F)CC1` (single isomer, unassigned) [Example 6A, (R)-2-methyl-3-oxo-N-((R or S)-(trans-4-(trifluoromethyl)cyclo-hexyl)(3,4,5-tri-fluorophenyl)methyl) piperazine-1-carboxamide], the midpoint of inhibition, the IC50, lay at 0.232 µM.
The same measure for `C[C@@H]1C(=O)NCCN1C(=O)NC(c1cc(F)c(F)c(F)c1)[C@H]1CC[C@H](C(F)(F)F)CC1` (single isomer, unassigned) [Example 6B, (R)-2-methyl-3-oxo-N-((S or R)-(trans-4-(trifluoromethyl)cyclo-hexyl)(3,4,5-tri-fluorophenyl)methyl) piperazine-1-carboxamide]: 0.0354 µM; for `C[C@@H]1C(=O)NCCN1C(=O)NC(c1ccc(F)c(Cl)c1)[C@@H]1C[C@@H]2[C@H](C1)C2(F)F` (single isomer, unassigned) [Example 7A, (2R)-N-((R or S)-(3-chloro-4-fluoro-phenyl)((1R,3s,5S)-6,6-difluoro-bicyclo[3.1.0]hexan-3-yl)methyl)-2-methyl-3-oxo-piperazine-1-carboxamide]: 0.112 µM.
Under `C[C@@H]1C(=O)NCCN1C(=O)NC(c1ccc(F)c(Cl)c1)[C@@H]1C[C@@H]2[C@H](C1)C2(F)F` (single isomer, unassigned) [Example 7B, (2R)-N-((S or R)-(3-chloro-4-fluoro-phenyl)((1R,3s,5S)-6,6-difluoro-bicyclo[3.1.0]hexan-3-yl)methyl)-2-methyl-3-oxo-piperazine-1-carboxamide] stands 0.0117 µM.
Under `C[C@@H]1C(=O)NCCN1C(=O)NC(c1ccc(F)c(F)c1)[C@H]1CC[C@H](C(F)(F)F)CC1` (single isomer, unassigned) [Example 8A, (2R)-N-((R or S)-(3,4-difluoro-phenyl)(trans-4-(trifluoromethyl)cyclo-hexyl)methyl)-2-methyl-3-oxo-piperazine-1-carboxamide] stands 0.244 µM; under `C[C@@H]1C(=O)NCCN1C(=O)NC(c1ccc(F)c(F)c1)[C@H]1CC[C@H](C(F)(F)F)CC1` (single isomer, unassigned) [Example 8B, (2R)-N-((S or R)-(3,4-difluoro-phenyl)(trans-4-(trifluoromethyl)cyclo-hexyl)methyl)-2-methyl-3-oxo-piperazine-1-carboxamide], 0.0132 µM; under `C[C@@H]1C(=O)NCCN1C(=O)NC(c1ccc(F)c(Cl)c1F)[C@H]1CC[C@H](C(F)(F)F)CC1` (single isomer, unassigned) [Example 9A, (2R)-N-((R or S)-(3-chloro-2,4-difluoro-phenyl)(trans-4-(trifluoromethyl)cyclo-hexyl)methyl)-2-methyl-3-oxo-piperazine-1-carboxamide], 0.0468 µM.
With `C[C@@H]1C(=O)NCCN1C(=O)NC(c1ccc(F)c(Cl)c1F)[C@H]1CC[C@H](C(F)(F)F)CC1` (single isomer, unassigned) [Example 9B, (2R)-N-((S or R)-(3-chloro-2,4-difluoro-phenyl)(trans-4-(trifluoromethyl)cyclo-hexyl)methyl)-2-methyl-3-oxo-piperazine-1-carboxamide], inhibition was half-maximal at 0.0008 µM (IC50).
Under `O=C1CN(C(=O)NC(c2ccc(F)c(Cl)c2F)[C@H]2CC[C@H](C(F)(F)F)CC2)CCN1` (single isomer, unassigned) [Example 10A, N-((R or S)-(3-chloro-2,4-difluoro-phenyl)(trans-4-(trifluoromethyl)cyclo-hexyl)methyl)-3-oxopiperazine-1-carboxamide] stands 0.311 µM; under `O=C1CN(C(=O)NC(c2ccc(F)c(Cl)c2F)[C@H]2CC[C@H](C(F)(F)F)CC2)CCN1` (single isomer, unassigned) [Example 10B, N-((S or R)-(3-chloro-2,4-di-fluorophenyl)(trans-4-(trifluoromethyl)-cyclohexyl)methyl)-3-oxopiperazine-1-carboxamide], 0.00387 µM.

The term IC50 denotes the concentration at which inhibition is half-maximal. Read a low IC50 as inhibition by little substance.

The values above are taken from patent US20220380338A1, “CYCLOALKYL 3-OXOPIPERAZINE CARBOXAMIDES AND CYCLOHETEROALKYL 3-OXOPIPERAZINE CARBOXAMIDES AS NAV1.8 INHIBITORS” (Merck Sharp & Dohme LLC, priority 2021, published 2022).
